The experiment has as its target T1, CCR1 (Homo sapiens, UniProt P32246).
T1 sequence (P32246 1-355): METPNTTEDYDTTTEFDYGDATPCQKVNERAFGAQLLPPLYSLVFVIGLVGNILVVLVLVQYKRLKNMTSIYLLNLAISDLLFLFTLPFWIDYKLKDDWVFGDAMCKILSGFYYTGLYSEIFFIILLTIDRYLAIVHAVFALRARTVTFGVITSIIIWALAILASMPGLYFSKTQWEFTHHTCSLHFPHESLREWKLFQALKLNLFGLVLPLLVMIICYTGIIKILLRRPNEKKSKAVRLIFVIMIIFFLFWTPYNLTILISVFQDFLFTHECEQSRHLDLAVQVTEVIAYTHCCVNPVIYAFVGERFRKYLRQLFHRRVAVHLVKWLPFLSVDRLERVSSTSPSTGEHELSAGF
Nature of the experiment: Method A: calcium flux in CCR1 transfected cells (Fluo-4 NW, FLIPR TETRA), block of the CCR1/MIP-1α interaction. The class given is cell-based. As to conditions: Method A: Fluo-4 NW, MIP-1 alpha at EC80. In outline: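 Non-adherent cells stably expressing recombinant CCR1 and G-alpha-16, Fluo-4 NW-loaded 1 h at room temperature, preincubated 1 h with compound (top 3,000 nM, 4-fold, 10 doses; 1% DMSO) in HBSS/20 mM HEPES pH 7.4. MIP-1 alpha added at EC80; intracellular calcium flux recorded on FLIPR TETRA.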
(A change in cytosolic calcium serves as a functional read-out for many receptors and channels.)

This note sets out measurements from patent US8063065B2, “Azaindazole compounds as CCR1 receptor antagonists” (Boehringer Ingelheim International GmbH, priority 2008, dated 2011).

One may read the pIC50 as −log10 of the IC50, conventionally taken in molar units.

Each structure is given as a SMILES string. pIC50: −log10 of the molar value.

With `COCCNS(=O)(=O)c1ccc(CNC(=O)c2cncc3c2cnn3-c2ccc(F)cc2)cn1` [1-(4-Fluorophenyl)-1H-pyrazolo[3,4-c]pyridine-4-carboxylic acid [6-(2-methoxy-ethylsulfamoyl)-pyridin-3-ylmethyl]-amide], the pIC50 was 8.05. In the case of `C[C@@H](CO)NS(=O)(=O)c1ccc(CNC(=O)c2cncc3c2cnn3-c2ccc(F)cc2)cc1` [1-(4-Fluorophenyl)-1H-pyrazolo[3,4-c]pyridine-4-carboxylic acid 4-((S)-2-hydroxy-1-methyl-ethylsulfamoyl)-benzylamide], the pIC50 was 8.70. In the case of `CCC[C@H](NC(=O)c1cncc2c1cnn2-c1ccc(F)cc1)c1cccnc1` [1-(4-Fluorophenyl)-1H-pyrazolo[3,4-c]pyridine-4-carboxylic acid ((S)-1-pyridin-3-yl-butyl)-amide], the pIC50 was 8.30. The same measure for `CN(C)CCN(c1ccc(CNC(=O)c2cncc3c2cnn3-c2ccc(F)cc2)cn1)S(C)(=O)=O` [1-(4-Fluorophenyl)-1H-pyrazolo[3,4-c]pyridine-4-carboxylic acid {6-[(2-dimethylamino-ethyl)-methanesulfonyl-amino]-pyridin-3-ylmethyl}-amide]: 7.66; for `COc1cc(CNC(=O)c2cncc3c2cnn3-c2ccc(F)cc2)ccn1` [1-(4-Fluorophenyl)-1H-pyrazolo[3,4-c]pyridine-4-carboxylic acid (2-methoxy-pyridin-4-ylmethyl)-amide]: 8.70. As to `CCCC(NC(=O)c1cncc2c1cnn2-c1ccc(F)cc1)c1cncc(S(N)(=O)=O)c1` (stereo not shown) [1-(4-Fluorophenyl)-1H-pyrazolo[3,4-c]pyridine-4-carboxylic acid [1-(5-sulfamoyl-pyridin-3-yl)-butyl]-amide], the pIC50 is 9.40. On to `CCC[C@H](NC(=O)c1cncc2c1cnn2-c1ccc(F)cc1)c1cncc(S(=O)(=O)O)c1` [5-((S)-1-{[1-(4-Fluorophenyl)-1H-pyrazolo[3,4-c]pyridine-4-carbonyl]-amino}-butyl)-pyridine-3-sulfonic acid], for which the pIC50 is 8.40.

With `O=C(NCc1ccc(S(=O)(=O)NC2CCOCC2)nc1)c1cncc2c1cnn2-c1ccc(F)cc1` [1-(4-Fluorophenyl)-1H-pyrazolo[3,4-c]pyridine-4-carboxylic acid [6-(tetrahydropyran-4-ylsulfamoyl)-pyridin-3-ylmethyl]-amide], the pIC50 was 7.77. Regarding `CCCC(NC(=O)c1cncc2c1cnn2-c1ccc(F)cc1)c1ccnc(Br)c1` (stereo not shown) [1-(4-Fluorophenyl)-1H-pyrazolo[3,4-c]pyridine-4-carboxylic acid [1-(2-bromopyridin-4-yl)-butyl]-amide], the pIC50 is 9.40.

For `CN(C1CCNCC1)S(=O)(=O)c1ccc(CNC(=O)c2cncc3c2cnn3-c2ccc(F)cc2)cc1` [1-(4-Fluorophenyl)-1H-pyrazolo[3,4-c]pyridine-4-carboxylic acid 4-(methyl-piperidin-4-yl-sulfamoyl)-benzylamide], the pIC50 was 8.70. Regarding `CCC(NC(=O)c1cncc2c1cnn2-c1ccc(F)cc1)c1ccc(S(C)(=O)=O)nc1` (stereo not shown) [1-(4-Fluorophenyl)-1H-pyrazolo[3,4-c]pyridine-4-carboxylic acid [1-(6-methanesulfonyl-pyridin-3-yl)-propyl]-amide], the pIC50 is 8.52. The same measure for `CNS(=O)(=O)c1cc(CNC(=O)c2cncc3c2cnn3-c2ccc(F)cc2)ccc1OC` [1-(4-Fluorophenyl)-1H-pyrazolo[3,4-c]pyridine-4-carboxylic acid 4-methoxy-3-methylsulfamoyl-benzylamide]: 7.92; for `O=C(NCc1ccc(S(=O)(=O)N2CCC(O)C2)cc1)c1cncc2c1cnn2-c1ccc(Cl)cc1` (stereo not shown) [1-(4-Chlorophenyl)-1H-pyrazolo[3,4-c]pyridine-4-carboxylic acid 4-(3-hydroxy-pyrrolidine-1-sulfonyl)-benzylamide]: 8.70. As for `COc1cc(S(C)(=O)=O)ccc1CNC(=O)c1cncc2c1cnn2-c1ccc(F)cc1` [1-(4-Fluorophenyl)-1H-pyrazolo[3,4-c]pyridine-4-carboxylic acid 4-methanesulfonyl-2-methoxy-benzylamide], the pIC50 was 8.00. Consider `C[C@H](NC(=O)c1cncc2c1cnn2-c1ccc(Cl)cc1)c1cncc(Br)c1` [1-(4-Chlorophenyl)-1H-pyrazolo[3,4-c]pyridine-4-carboxylic acid [(S)-1-(5-bromopyridin-3-yl)-ethyl]-amide], for which the pIC50 was 8.70.

As for `CC(NC(=O)c1cncc2c1cnn2-c1ccc(F)cc1)c1ccc(S(C)(=O)=O)nc1` (stereo not shown) [1-(4-Fluorophenyl)-1H-pyrazolo[3,4-c]pyridine-4-carboxylic acid [1-(6-methanesulfonyl-pyridin-3-yl)-ethyl]-amide], the pIC50 is 8.05.

Take `CCCC(NC(=O)c1cncc2c1cnn2-c1ccc(Cl)cc1)c1ccnc(Br)c1` (stereo not shown) [1-(4-Chlorophenyl)-1H-pyrazolo[3,4-c]pyridine-4-carboxylic acid [1-(2-bromopyridin-4-yl)-butyl]-amide]: the negative-log IC50 (pIC50) is 8.70.

In the case of `CCC[C@H](NC(=O)c1cncc2c1cnn2-c1ccc(F)cc1)c1cncc(S(C)(=O)=O)c1` [1-(4-Fluorophenyl)-1H-pyrazolo[3,4-c]pyridine-4-carboxylic acid [(S)-1-(5-methanesulfonyl-pyridin-3-yl)-butyl]-amide], the pIC50 was 9.52.

In the case of `NC1CCN(S(=O)(=O)c2ccc(CNC(=O)c3cncc4c3cnn4-c3ccc(F)cc3)cc2)CC1` [1-(4-Fluorophenyl)-1H-pyrazolo[3,4-c]pyridine-4-carboxylic acid 4-(4-amino-piperidine-1-sulfonyl)-benzylamide], the pIC50 was 9.52. The same measure for `C[C@H](NC(=O)c1cncc2c1cnn2-c1ccc(F)cc1)c1cncc(S(C)(=O)=O)c1` [1-(4-Fluorophenyl)-1H-pyrazolo[3,4-c]pyridine-4-carboxylic acid [(S)-1-(5-methanesulfonyl-pyridin-3-yl)-ethyl]-amide]: 8.52; for `CCCC(NC(=O)c1cncc2c1cnn2-c1ccc(F)cc1)c1cncc(Br)c1` (stereo not shown) [1-(4-Fluorophenyl)-1H-pyrazolo[3,4-c]pyridine-4-carboxylic acid [1-(5-bromopyridin-3-yl)-butyl]-amide]: 9.40. The same measure for `O=C(NCc1ccc(S(=O)(=O)N2CCOCC2)cc1)c1cncc2c1cnn2-c1ccc(F)cc1` [1-(4-Fluorophenyl)-1H-pyrazolo[3,4-c]pyridine-4-carboxylic acid 4-(morpholine-4-sulfonyl)-benzylamide]: 8.70; for `CS(=O)(=O)Nc1ccc(CNC(=O)c2cncc3c2cnn3-c2ccc(F)cc2)cn1` [1-(4-Fluorophenyl)-1H-pyrazolo[3,4-c]pyridine-4-carboxylic acid (6-methanesulfonylamino-pyridin-3-ylmethyl)-amide]: 7.60; for `O=C(NCc1cccc(C(F)(F)F)c1)c1c[n+]([O-])cc2c1cnn2-c1ccc(F)cc1` [1-(4-Fluorophenyl)-6-oxy-1H-pyrazolo[3,4-c]pyridine-4-carboxylic acid 3-trifluoromethyl-benzylamide]: 8.22. Regarding `O=C(NCc1ccc(S(=O)(=O)N2CCOCC2)nc1)c1cncc2c1cnn2-c1ccc(F)cc1` [1-(4-Fluorophenyl)-1H-pyrazolo[3,4-c]pyridine-4-carboxylic acid [6-(morpholine-4-sulfonyl)-pyridin-3-ylmethyl]-amide], the pIC50 is 7.74.
